As usually defined, the pIC50 is −log10 of the IC50, conventionally taken in molar units.

The structures appear in SMILES notation. pIC50: −log10 of the molar value.

The values that follow come from US20120040930A1, “TETRACYCLIC TERPENE SERIES COMPOUNDS, METHODS FOR PREPARING SAME, USES THEREOF AS MEDICINES AND PHARMACEUTICAL COMPOUNDS CONTAINING SAME” (priority 2005, published 2012).

T1 sequence (O42275 24-633): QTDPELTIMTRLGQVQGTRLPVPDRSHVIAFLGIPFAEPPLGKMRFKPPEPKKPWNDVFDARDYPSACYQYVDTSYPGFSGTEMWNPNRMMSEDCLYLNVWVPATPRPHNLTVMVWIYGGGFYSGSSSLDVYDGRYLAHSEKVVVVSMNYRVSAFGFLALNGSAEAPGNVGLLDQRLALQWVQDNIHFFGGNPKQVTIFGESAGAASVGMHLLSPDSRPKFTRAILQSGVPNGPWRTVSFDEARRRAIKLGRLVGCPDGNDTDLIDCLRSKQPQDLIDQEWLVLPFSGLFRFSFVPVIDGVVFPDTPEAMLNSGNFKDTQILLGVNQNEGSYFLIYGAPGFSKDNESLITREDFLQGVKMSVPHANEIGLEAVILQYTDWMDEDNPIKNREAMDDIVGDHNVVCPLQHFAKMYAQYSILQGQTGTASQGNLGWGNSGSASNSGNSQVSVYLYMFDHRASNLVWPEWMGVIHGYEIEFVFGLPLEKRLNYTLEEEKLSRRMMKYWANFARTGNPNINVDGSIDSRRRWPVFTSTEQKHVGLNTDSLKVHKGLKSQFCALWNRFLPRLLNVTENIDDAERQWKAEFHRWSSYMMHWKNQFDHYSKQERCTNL

The first assay concerns the target T1, acetylcholinesterase (AChE) isolated from Electrophorus electricus (Electrophorus electricus, UniProt O42275).
T1 construct: AChE isolated from Electrophorus electricus; from tissue
Nature of the assay: biochemical. The note with it: AChE isolated from Electrophorus electricus; read-out: AChE IC50.
`CC(C)C(=O)N[C@H]1CCC23C[C@]24C(=O)C[C@]2(C)[C@@H]([C@H](C)N(C)C)[C@H](O)C[C@@]2(C)[C@@H]4CC[C@H]3[C@]1(C)CNCc1ccccc1` (stereo partly drawn) [Compound 46, (20S)-20-dimethylamino-3β-(isobutyrylamino)-9,19-cyclo-4α-benzylaminomethyl-4β,14α-dimethyl-5α,9β-pregnan-16α-ol-11-one]: the pIC50 is 4.47.
`CN[C@@H](C)[C@H]1[C@H](OC(=O)C(C)(C)C)C[C@@]2(C)[C@@H]3CC[C@@H]4C5(CC[C@H](NC(=O)C(C)C)[C@@]4(C)C=O)C[C@@]35C(=O)C[C@]12C` (stereo partly drawn) [Compound 43, (20S)-3β-isobutyrylamino-20-methylamino-9,19-cyclo-4β,14α-dimethyl-4α-formyl-16α-pivalyl-5α,9β-pregnan-11-one]: the pIC50 was less than 4.00.
The same measure, in the same setting: the figure for `CC(C)C(=O)N[C@H]1CCC23C[C@]24C(=O)C[C@]2(C)[C@@H]([C@H](C)N(C)C)[C@H](O[Si](C)(C)C(C)(C)C)C[C@@]2(C)[C@@H]4CC[C@H]3[C@]1(C)CNC([Si](C)(C)C)[Si](C)(C)C` (stereo partly drawn) [Compound 57, (20S)-3β-isobutyrylamino-20-dimethylamino-9,19-cyclo-4β,14α-dimethyl-4α-(bis-(trimethylsilanyl)methylamino)methyl-16α-(tert-butyl-dimethyl-silanyloxy)-5α,9β-pregnan-11-one] is less than 4.00.
Still for that read-out and setting: the figure for `Cc1ccc(S(=O)(=O)O[C@@H]2C[C@@]3(C)[C@@H]4CC[C@@H]5C6(CC[C@H](NC(=O)C(C)C)[C@@]5(C)CO)C[C@@]46C(=O)C[C@]3(C)[C@H]2[C@H](C)N(C)C)cc1` (stereo partly drawn) [Compound 36, (20S)-3β-isobutyrylamino-20-dimethylamino-9,19-cyclo-4β,14α-dimethyl-4α-hydroxymethyl-16α-tosyl-5α,9β-pregnan-11-one] is less than 4.00.
For the molecule `CC(C)C(=O)N[C@H]1CCC23C[C@]24C(=O)C[C@]2(C)[C@@H]([C@H](C)N(C)C)[C@H](OS(C)(=O)=O)C[C@@]2(C)[C@@H]4CC[C@H]3[C@]1(C)CO` (stereo partly drawn) [Compound 37, (20S)-3β-isobutyrylamino-20-dimethylamino-9,19-cyclo-4β,14α-dimethyl-4α-hydroxymethyl-16α-mesyl-5α,9β-pregnan-11-one], the pIC50 was no more than 4.00.
As to `CC(C)C(=O)N[C@H]1CCC23C[C@]24C(=O)C[C@]2(C)[C@@H]([C@H](C)N(C)C)[C@H](O)C[C@@]2(C)[C@@H]4CC[C@H]3[C@]1(C)CNC([Si](C)(C)C)[Si](C)(C)C` (stereo partly drawn) [Compound 55, (20S)-3β-isobutyrylamino-20-dimethylamino-9,19-cyclo-4β,14α-dimethyl-4α-(bis-(trimethylsilanyl)methylamino)methyl-5α,9β-pregnan-16α-ol-11-one], the negative-log IC50 (pIC50) is less than 4.00.
Regarding `CC(C)C(=O)N[C@H]1CCC23C[C@]24C(=O)C[C@]2(C)[C@@H]([C@H](C)N(C)C)[C@H](O)C[C@@]2(C)[C@@H]4CC[C@H]3[C@]1(C)C=O` (stereo partly drawn) [Compound 44, (20S)-3β-isobutyrylamino-20-dimethylamino-9,19-cyclo-4β,14α-dimethyl-4α-formyl-5α,9β-pregnan-16α-ol-11-one], the negative logarithm of the IC50 (pIC50) was less than 4.00.
On the same count and under the same terms, the same measure for `CCC(C)C1=NC2CCC34C[C@]35C(=O)C[C@]3(C)[C@@H]([C@H](C)N(C)C)[C@H](O)C[C@@]3(C)[C@@H]5CC[C@H]4[C@]2(C)CN1` (stereo partly drawn) [Compound 64, (20S)-20-dimethylamino-9,19-cyclo-4β,14α-dimethyl-(2-(S)-sec-butyl-5β-methyl-1,4,5,6-tetrahydro-pyrimidin-5-yl)-5α,9β-pregnan-16α-ol-11-one]: 7.85.

The same assay, now with this note: read-out: AChE IC50.
In the case of `CC[C@H](C)C(=O)N[C@H]1CC=C2C[C@H]3C(=O)C[C@]4(C)[C@@H]([C@H](C)N(C)C)[C@H](O)C[C@@]4(C)[C@@H]3CC[C@H]2[C@]1(C)/C=N/Cc1ccccc1` [Compound 68, (20S)-10(9->1)-abeo-20-dimethylamino-3-((S)-2-methylbutyrylamino)-4α-benzyliminomethyl-4β,14α-dimethyl-5α,9β-pregn-1(10)-en-16α-ol-11-one], the pIC50 is 6.11.
